Marks after values point to notes of the source that are not given here.
System: Taxol-induced neuropathic pain
Assay: Taxol-induced neuropathic pain in mice, SC administration
Type: in vivo
Experimental: Study outline in brief: Animals were dosed daily with Taxol for a period of 8 consecutive days (Day 0 to Day 7). On study day 8, prior to drug dosing, the decrease in withdrawal force (tactile allodynia) was verified by applying the von Frey test. After assigning the animals to their treatment groups, the animals were treated daily for a period of 5 days with either vehicle or Formula 1 at different doses. Gabapentin at a dose of 150 mg/kg was dosed only on days of testing (day 8 and day 14).
Response to heat stimuli was assessed using the hotplate apparatus set at 50ΥC. […] At baseline prior to Taxol dosing, the animals' response time to heat was 28.10±1.60 sec (vehicle-treated group). […] However, it is interesting to note that the beneficial activity of Formula 1 on heat hyperalgesia was more noticeable on study day 14, following repeated daily dosing of the compound, than on study day 8 following a single dose (Table 6).

For `CC(C)(C)C(=O)O[C@@H]1[C@@H]2[C@H]3C[C@H](C[C@@H]1N3Cc1ccccn1)CN2C(=O)CC(F)(F)F` (relative stereo) [Formula 1, (2S*,3S*,3aS*,6R*,7aR*)-1-(pyridin-2-ylmethyl)-4-(3,3,3-trifluoropropanoyl)octahydro-1H-2,6-methanopyrrolo[3,2-b]pyridin-3-yl pivalate], the “response time to heat (50° C.), Mean” value (SC 1 mg/kg, Day 0 Pre-Taxol) was 28.8 s, the “response time to heat (50° C.), Mean” value (SC 1 mg/kg, Day 8, 1 h) was 11.9 s and the “response time to heat (50° C.), Mean” value (SC 1 mg/kg, Day 8, 2 h) was 22.8* sec. The “response time to heat (50° C.), Mean” value (SC 1 mg/kg, Day 8, 4 h) was 18.9* sec, the “response time to heat (50° C.), Mean” value (SC 1 mg/kg, Day 8, 6 h) was 18.5* sec and the “response time to heat (50° C.), Mean” value (SC 1 mg/kg, Day 8 Pre-dosing) was 11.4 s. For the same compound, the “response time to heat (50° C.), Mean” value (SC 1 mg/kg, Day 14, 1 h) was 14.9* sec, the “response time to heat (50° C.), Mean” value (SC 1 mg/kg, Day 14, 2 h) was 24.6* sec and the “response time to heat (50° C.), Mean” value (SC 1 mg/kg, Day 14, 4 h) was 24.2* sec. The “response time to heat (50° C.), Mean” value (SC 1 mg/kg, Day 14, 6 h) was 22.0* sec, the “response time to heat (50° C.), Mean” value (SC 1 mg/kg, Day 14 Pre-dosing) was 15.8* sec and the “response time to heat (50° C.), Mean” value (SC 1 mg/kg, Day 17, No dosing) was 12.4 s. For the same compound, the “response time to heat (50° C.), Mean” value (SC 3 mg/kg, Day 0 Pre-Taxol) was 28.6 s, the “response time to heat (50° C.), Mean” value (SC 3 mg/kg, Day 8, 1 h) was 15.7 s and the “response time to heat (50° C.), Mean” value (SC 3 mg/kg, Day 8, 2 h) was 19.4 s. The “response time to heat (50° C.), Mean” value (SC 3 mg/kg, Day 8, 4 h) was 14.8 s, the “response time to heat (50° C.), Mean” value (SC 3 mg/kg, Day 8, 6 h) was 14.1 s and the “response time to heat (50° C.), Mean” value (SC 3 mg/kg, Day 8 Pre-dosing) was 12.2 s. For the same compound, the “response time to heat (50° C.), Mean” value (SC 3 mg/kg, Day 14, 1 h) was 18.4* sec, the “response time to heat (50° C.), Mean” value (SC 3 mg/kg, Day 14, 2 h) was 24.8* sec and the “response time to heat (50° C.), Mean” value (SC 3 mg/kg, Day 14, 4 h) was 23.6* sec. The “response time to heat (50° C.), Mean” value (SC 3 mg/kg, Day 14, 6 h) was 20.6* sec, the “response time to heat (50° C.), Mean” value (SC 3 mg/kg, Day 14 Pre-dosing) was 19.7 s and the “response time to heat (50° C.), Mean” value (SC 3 mg/kg, Day 17, No dosing) was 12.2 s. For the same compound, the “response time to heat (50° C.), Mean” value (SC 10 mg/kg, Day 0 Pre-Taxol) was 28.5 s, the “response time to heat (50° C.), Mean” value (SC 10 mg/kg, Day 8, 1 h) was 15.7 s and the “response time to heat (50° C.), Mean” value (SC 10 mg/kg, Day 8, 2 h) was 17.8* sec. For the same compound, the “response time to heat (50° C.), Mean” value (SC 10 mg/kg, Day 8, 4 h) was 15.8 s, the “response time to heat (50° C.), Mean” value (SC 10 mg/kg, Day 8, 6 h) was 14.3 s and the “response time to heat (50° C.), Mean” value (SC 10 mg/kg, Day 8 Pre-dosing) was 11.2 s. The “response time to heat (50° C.), Mean” value (SC 10 mg/kg, Day 14, 1 h) was 18.5* sec, the “response time to heat (50° C.), Mean” value (SC 10 mg/kg, Day 14, 2 h) was 18.7* sec and the “response time to heat (50° C.), Mean” value (SC 10 mg/kg, Day 14, 4 h) was 19.3* sec. For the same compound, the “response time to heat (50° C.), Mean” value (SC 10 mg/kg, Day 14, 6 h) was 15.5* sec, the “response time to heat (50° C.), Mean” value (SC 10 mg/kg, Day 14 Pre-dosing) was 14.5 s and the “response time to heat (50° C.), Mean” value (SC 10 mg/kg, Day 17, No dosing) was 10.4 s. The “response time to heat (hotplate 50° C.)” value (Taxol mice, SC, 10 mg/kg, 3 mg/kg and 1 mg/kg) was “active in increasing the response time”, the “analgesic activity (withdrawal force, von Frey)” value (Taxol mice, SC, dose as low as 1 mg/kg) was “profound analgesic activity” and the “Dose of maximum activity” value (Taxol model, SC, mice) was 1 mg/kg. For the same compound, the “Duration of activity at maximum effect” value (Taxol model, SC, mice) was 3 days and the “Level of activity (% of maximum effect-baseline)” value (Taxol model, SC, mice) was 100%.

Reference: patent US10351566B2, “Therapeutic compounds for pain and synthesis thereof” (priority 2015, dated 2019)
